Patent publication US20250082674A1, “METHODS OF TREATING COPPER METABOLISM-ASSOCIATED DISEASES OR DISORDERS” (priority 2021, published 2025)
Like-named read-outs stand apart in the source and are kept apart here.

Legend:
[1] = tested on: albumin levels; details: for Albumin Level: Study 301 (normal 35-55)
Description: Across the 301, 201, and 205 studies, 102 participants had cirrhosis at baseline.

[2] = tested on: patients with Wilson disease (WD); test: Study 301: Unified Wilson Disease Rating Scale (UWDRS Parts II, III); format: in vivo, human
Description: The UWDRS scoring system was developed specifically for the motor and movement disorders associated with chronic copper neurotoxicity in WD. Some individual items/subscales of the UWDRS Part III (arising from a chair, gait, handwriting, and speech) in addition to the UWDRS Parts I, II, and III overall, were assessed to further define the range of burdensome signs and symptoms of WD, so as to further understand the assessment of treatment effects on patients with WD. The UWDRS scores for consciousness (Part I) and abnormal neurologic examination findings (Part III) will be determined by a trained neurologist rater who is blinded to study treatment randomization. These scores were used to provide a rigorous dataset for evaluating changes from baseline.
Unified Wilson Disease Rating Scale (Parts I, II, and III): The UWDRS is a clinical rating scale designed to evaluate the neurological manifestations of WD that generally can be divided into 3 movement disorder syndromes: dystonic, ataxic, and Parkinsonian syndrome. The UWDRS comprises 3 parts: UWDRS Part I (level of consciousness, item 1), UWDRS Part II (a patient-reported review of daily activity items [disability], items 2 to 11), and UWDRS Part III (a detailed neurological examination, items 12 to 34).
The UWDRS Part I and Part III were assessed by a neurologist who is blinded to the treatment randomization, while UWDRS Part II may be reported to a non-blinded member of the study team by the patient, family member, or caregiver. The UWDRS has not been formally evaluated in adolescents. However, the components of Part I (level of consciousness), Part II (patient or caregiver-reported disability) and Part III (neurologic examination findings) were not fundamentally different between adults and adolescents. Patients aged 12 years and older were expected to be able to comply with UWDRS assessments.
There were trends toward stability/improvement for both treatment groups. […] As approximately 50% of patients had baseline UWDRS scores of 0, and those patients that did have scores greater than zero were relatively low in the respective UWDRS Part II (score range: 0-40) and UWDRS Part III (score range: 0-175) scale range, there was little room for improvement.

[3] = Study 301: adverse events in participants who switched from SoC to BC-TTM in the Extension Period; details: SoC Weeks 0-48 (N = 70), BC-TTM Weeks 49-96 (N = 61)
[4] = Study 301, patients symptomatic at baseline, Cohort 1
[5] = Study 301, patients symptomatic at baseline, Cohort 2
[6] = Study 301, patients symptomatic at baseline, Overall

## Bis-choline tetrathiomolybdate [BC-TTM]
[1]; Participant 2, Week 60, early termination
  Albumin Level: 25 mg/dL
[1]; Participant 3, Baseline
  Albumin Level: 34 mg/dL
[1]; Participant 3, Week 48
  Albumin Level: 36 mg/dL
[1]; Participant 3, Week 60
  Albumin Level: 34 mg/dL
[1]; Participant 4, Baseline
  Albumin Level: 28 mg/dL
[1]; Participant 4, Week 48
  Albumin Level: 31 mg/dL
[1]; Participant 5, Baseline
  Albumin Level: 32 mg/dL
[1]; Participant 5, Week 48
  Albumin Level: 37 mg/dL
[1]; Participant 5, Week 96
  Albumin Level: 37 mg/dL
[1]; Participant 6, Baseline
  Albumin Level: 29 mg/dL
[1]; Participant 6, Week 24
  Albumin Level: 35 mg/dL
[1]; Participant 6, Week 48
  Albumin Level: 42 mg/dL
[1]; Participant 6, Week 96
  Albumin Level: 40 mg/dL
[1]; Participant 7, Baseline (Week 48 Extension Day 1)
  Albumin Level: 42 mg/dL
[1]; Participant 7, Week 8
  Albumin Level: 37 mg/dL
[1]; Participant 7, Week 24
  Albumin Level: 36 mg/dL
[1]; Participant 7, Week 30
  Albumin Level: 35 mg/dL
[1]; Participant 7, Week 48
  Albumin Level: 35 mg/dL
[1]; Participant 7, Week 144
  Albumin Level: 37 mg/dL
[1]; Participant 8, Baseline (Week 48 Extension Day 1)
  Albumin Level: 42 mg/dL
[1]; Participant 8, Week 120, early termination
  Albumin Level: 32 mg/dL
[1]; of 102, Studies 301, 201, 205
  participants with cirrhosis at baseline who experienced changes in albumin levels: 13 participants
  participants with cirrhosis at baseline whose albumin levels remained stable: 89 participants
[1]; of 102 participants
  participants with cirrhosis at baseline who maintained liver function (albumin levels): 87%
[1]; of the 13 with changes in liver function
  cirrhotic participants whose albumin levels returned to the normal range: 7 participants
[2]; Study 301, Full Analysis Set
  UWDRS Part II (0-40), Change from Baseline at 48 weeks, Mean: −0.6
  UWDRS Part II (0-40), Difference at 48 weeks, LSM (SE), BC-TTM vs SoC: 0.4 (0.51)
  UWDRS Part III (0-175), Change from Baseline at 48 weeks, Mean: −2.20
  UWDRS Part III (0-175), Difference at 48 weeks, LSM (SE), BC-TTM vs SoC: −0.09 (1.322)
  UWDRS Part III functional subscale (0-10), Change from Baseline at 48 weeks, Mean: −0.147
  UWDRS Part III functional subscale (0-10), Difference at 48 weeks, LSM (SE), BC-TTM vs SoC: −0.067 (0.1344)
  UWDRS Part III-arising from chair (0-4), Change from Baseline at 48 weeks, Mean: 0.0
  UWDRS Part III-arising from chair (0-4), Difference at 48 weeks, LSM (SE), BC-TTM vs SoC: 0.0 (0.06)
  UWDRS Part III-gait (0-10), Change from Baseline at 48 weeks, Mean: −0.06
  UWDRS Part III-gait (0-10), Difference at 48 weeks, LSM (SE), BC-TTM vs SoC: −0.15 (0.192)
  UWDRS Part III-handwriting (0-4), Change from Baseline at 48 weeks, Mean: −0.1
  UWDRS Part III-handwriting (0-4), Difference at 48 weeks, LSM (SE), BC-TTM vs SoC: −0.1 (0.09)
  UWDRS Part III-speech (0-4), Change from Baseline at 48 weeks, Mean: −0.1
  UWDRS Part III-speech (0-4), Difference at 48 weeks, LSM (SE), BC-TTM vs SoC: 0.0 (0.07)
[2]; Study 301, after adjusting for multiplicity (hierarchical testing)
  key secondary efficacy endpoints, BC-TTM versus SoC: none of the key secondary efficacy endpoints were statistically significantly different
[2]; [4]
  UWDRS Part III, Week 48 Change from Baseline, LSM Diff, BC-TTM vs SoC: −0.79
  UWDRS Part III, Week 48 Change from Baseline, Mean: −2.86
  UWDRS Part III, Week 48 Change from Baseline, Median: −2.00
[2]; Study 301, patients symptomatic at baseline, Cohort 1, MMRM
  UWDRS Part III, Week 48 Change from Baseline, LSM: −2.68
[2]; [5]
  UWDRS Part III, Week 48 Change from Baseline, LSM Diff (SE), BC-TTM vs SoC: 0.05 (5.041)
  UWDRS Part III, Week 48 Change from Baseline, Mean: −3.10
  UWDRS Part III, Week 48 Change from Baseline, Median: −3.00
[2]; Study 301, patients symptomatic at baseline, Cohort 2, MMRM
  UWDRS Part III, Week 48 Change from Baseline, LSM: 1.43
[2]; [6]
  UWDRS Part III, Week 48 Change from Baseline, LSM Diff, BC-TTM vs SoC: −0.33
  UWDRS Part III, Week 48 Change from Baseline, Mean: −2.91
  UWDRS Part III, Week 48 Change from Baseline, Median: −2.00
[2]; Study 301, patients symptomatic at baseline, Overall, MMRM
  UWDRS Part III, Week 48 Change from Baseline, LSM: −1.54
[3]
  Musculoskeletal and connective tissue disorders, E events: 7
  Musculoskeletal and connective tissue disorders, N participants: 7
  Musculoskeletal and connective tissue disorders, participants (%): 11.5%
